Test results reported in PMC7418971 (PLoS Pathogens, 2020).
Where two headings read alike, the source gives them in different places.

Columns and labels:
[1] = tested on: Eng195 M2-N31 TM/CD peptides; format: biochemical
[2] = tested on: A/England/195/2009 (E195) influenza A virus; assay: microbe, parasite or virus in culture; format: cell-based; settings: for IC50: read-out: Virus culture IC50
Eng195 in MDCK culture = format: cell-based, influenza A virus
H1N1 WSN virus = settings: read-out: EC50 in antiviral plaque assay; cited from earlier work
[3] = tested on: M2-N31 and M2-S31 CD peptides; format: biochemical, Influenza A/England/195/2009 (H1N1)

SMILES | TM/CD peptide preference in titration [1] | Virus culture Fold Titre Reduction (80 µM) [2] | IC50 ([2]; Influenza A virus, MDCK) | combination effect with M2WJ332 (Eng195 in MDCK culture) | antiviral effect versus Eng195 in culture [2] | further results
COc1ccccc1NC(=S)NC(=O)c1cc2ccccc2cc1OC [L1.1] | equivalent activity versus both TM/CD | 1000x | 1330 nM | synergistic | – | reduction in virus titre [2]: ~3 log10; combination effect with Zanamivir (Eng195 in MDCK culture): synergistic
c1csc(-c2cc(CNC34CC5CC(CC(C5)C3)C4)no2)c1 [M2WJ332, (3S,5S,7S)-N-{[5-(thiophen-2-yl)-1,2-oxazol-3-yl]methyl}tricycle[3.3.1.1~3,7~]decan-1-aminium, reference compound] | – | 100x | 1180 nM | – | – | reduction in virus titre [2]: 1–2 log10; IC50 [2]: 1180 nM; EC50 (H1N1 WSN virus): 153 nM
O=C(Nc1nnc[nH]1)c1cc2ccccc2o1 [K] | – | – | – | – | neither B nor K exhibited antiviral effects | –
CN1CCN(C(=O)c2ccc3ccccc3c2)CC1 [B] | – | – | – | – | neither B nor K exhibited antiviral effects | –
Cc1ncc(C23CC4CC(CC(C4)C2)C3)[nH]1 [H] | – | – | – | – | antiviral effects | –
Cc1c2ccccc2n2cc(-c3ccccc3)nc(C(C)C)c12 [DL7] | preference for CD peptides but with activity versus TM at higher concentrations | 100x | 1480 nM | antagonism | – | combination effect with L1.1 (Eng195 in MDCK culture): antagonism
CCCCCCCCCN1C[C@H](O)[C@@H](O)[C@H](O)[C@H]1CO [NNDNJ, reference compound] | – | – | – | – | antiviral effects | effect on M2 oligomerisation [3]: disrupted oligomerisation
Cc1ccc2nc(Oc3ccccc3)ccc2c1 [DP9] | preferential inhibition of CD peptides | 100x | 25000 to 50000 nM | synergistic | – | IC50 [2]: > 25000 nM
OCCNC12CC3CC(CC(C3)C1)C2 [J] | – | – | – | – | antiviral effects | –
c1cc2nc(C34CC5CC(CC(C5)C3)C4)[nH]c2cn1 [D] | – | – | – | – | antiviral effects | –
